# Test results from US7737166B2, “Antifungal bicyclic hetero ring compounds” (Daiichi Sankyo Company, Limited, priority 2005, dated 2010).
row,melting point [°C],Structure (SMILES)
1,219 to 221,"Cc1c(-c2ccccc2)c(N2CC[C@H](N(C)C)C2)c2oc(N3CC(O)C3)nc2c1C#N [Example 65, 7-[(3S)-3-(Dimethylamino)pyrrolidin-1-yl]-2-(3-hydroxyazetidin-1-yl)-5-methyl-6-phenyl-1,3-benzoxazole-4-carbonitrile]"
2,214 to 222,"Cc1c(-c2ccccc2)c(N2CC[C@H](N(C)C)C2)c2oc(-c3cnn(C)c3)nc2c1C#N [Example 74, 7-[(3S)-3-(Dimethylamino)pyrrolidin-1-yl]-5-methyl-2-(1-methyl-1H-pyrazol-4-yl)-6-phenyl-1,3-benzoxazole-4-carbonitrile]"
3,167 to 169,"Cc1c(-c2ccccc2)c(N2CC[C@H](N(C)C)C2)c2oc(N3CC(C)(O)C3)nc2c1C#N [Example 99, 7-[(3S)-3-(Dimethylamino)-1-pyrrolidinyl]-2-(3-hydroxy-3-methylazetidin-1-yl)-5-methyl-6-phenyl-1,3-benzoxazole-4-carbonitrile]"
4,259 to 263,"Cc1c(-c2ccccc2)c(N2CC[C@H](N(C)C)C2)c2oc(-c3ccccc3N)nc2c1C#N [Example 109, 2-(2-Aminophenyl)7-[(3S)-3-(dimethylamino)pyrrolidin-1-yl]-5-methyl-6-phenyl-1,3-benzoxazole-4-carbonitrile]"
5,159 to 162,"Cc1c(-c2ccccc2)c(N2CC[C@H](N(C)C)C2)c2oc(-c3ccccc3O)nc2c1C#N [Example 110, 7-[(3S)-3-(Dimethylamino)pyrrolidin-1-yl]-2-(2-hydroxyphenyl)-5-methyl-6-phenyl-1,3-benzoxazole-4-carbonitrile]"
6,215 to 217,"Cc1c(-c2ccccc2)c(N2CC[C@H](N(C)C)C2)c2oc(N3CCOCC3)nc2c1C#N [Example 130, 7-[(3S)-3-(Dimethylamino)pyrrolidin-1-yl]-5-methyl-2-morpholin-4-yl-6-phenyl-1,3-benzoxazole-4-carbonitrile]"
7,209 to 211,"CCN[C@H]1CCN(c2c(-c3ccccc3)c(C)c(C#N)c3nc(C4CC4)oc23)C1 [Example 138, 2-Cyclopropyl-7-[(3S)-3-(ethylamino)pyrrolidin-1-yl]-5-methyl-6-phenyl-1,3-benzoxazole-4-carbonitrile]"
8,104 to 107,"Cc1c(-c2cccc(CF)c2)c(N2CC[C@H](N(C)C)C2)c2oc(C3CC3)nc2c1C#N [Example 144-10, 2-Cyclopropyl-7-[(3S)-3-(dimethylamino)pyrrolidin-1-yl]-6-[3-(fluoromethyl)phenyl]-5-methyl-1,3-benzoxazole-4-carbonitrile]"
9,172 to 174,"Cc1c(-c2ccccc2)c(C2=CCNC2)c2oc(C3CC3)nc2c1C#N [Example 153, 2-Cyclopropyl-7-(2,5-dihydro-1H-pyrrol-3-yl)-5-methyl-6-phenyl-1,3-benzoxazole-4-carbonitrile]"
10,178 to 180,"CN[C@@]1(C)CCN(c2c(-c3cccc(F)c3)c(C)c(C#N)c3nc(C(=O)N(C)C)oc23)C1 [Example 157, 4-Cyano-6-(3-fluorophenyl)-N,N,5-trimethyl-7-[(3S)-3-methyl-3-(methylamino)pyrrolidin-1-yl]-1,3-benzoxazole-2-carboxamide]"
11,202 to 204,"Cc1c(-c2ccccc2)c(N2CC[C@](C)(N)C2)c2oc(C(=O)N(C)C)nc2c1C#N [Example 160, 7-[(3S)-3-Amino-3-methylpyrrolidin-1-yl]-4-cyano-N,N,5-trimethyl-6-phenyl-1,3-benzoxazole-2-carboxamide]"
